Laboratory results taken from article PMC11274883, “Anticancer Effect of Pt^[sequence], Pt^II5MESS, Pt^II56MESS and Their Platinum(IV)-Dihydroxy Derivatives against Triple-Negative Breast Cancer and Cisplatin-Resistant Colorectal Cancer” (Cancers, 2024).

Columns and labels:
Type in all cases: cell-based
[1] = system: A2780; experiment: WST-1 cytotoxicity, 72 h
Outline: (§1)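 Cells were seeded at 1000 per well and exposed to compound for 72 h. Viability was then read with WST-1 (1 h, absorbance at 450 nm). Apparent IC50 values came from nonlinear regression of % survival across three experiments, each with n = 3.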

[2] = system: ADDP; experiment: WST-1 cytotoxicity, 72 h
Outline: as §1

[3] = system: HT29; experiment: WST-1 cytotoxicity, 72 h
Outline: as §1

[4] = system: MCF−7; experiment: WST-1 cytotoxicity, 72 h
Outline: as §1

[5] = system: MDA−MB−231; experiment: WST-1 cytotoxicity, 72 h
Outline: as §1

[6] = system: HT29 cells; experiment: DCFDA cellular ROS detection assay; conditions: complexes at IC50, TBHP 20 µM
Outline: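 Cells seeded at 2500 cells/well overnight, then loaded with 25 µM DCFH-DA for 45 min. DCF fluorescence (ex/em 485/535 nm, RFU) read at multiple time points; 20 µM TBHP served as positive control. Three independent experiments in triplicate.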

[7] = system: HT29 cells; experiment: Western blot protein expression; conditions: HT29, IC50, 72 h
Outline: (§2)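 Cells were lysed in RIPA buffer with orthovanadate, and 20 µg protein was run on SDS-PAGE, transferred to PVDF and probed for proliferation, apoptosis, microtubule and autophagy markers. ECL band intensities were normalised to GAPDH and then to untreated control. Three independent experiments were run per marker.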

[8] = system: MDA−MB−231 cells; experiment: Western blot protein expression; conditions: MDA−MB−231, IC50, 72 h
Outline: as §2

[9] = representative blot Figure S30G
[10] = representative blot Figure S30H

N[C@H]1CCCC[C@@H]1N.O=[N+]([O-])[O-].O=[N+]([O-])[O-].[OH-].[OH-].[Pt+4].c1cnc2c(c1)ccc1cccnc12 [[Pt(1,10-phenanthroline)(1S,2S-diaminocyclohexane)(dihydroxy)](NO3)2]
potency relative to cisplatin ([1]; A2780, 72 h): 3 fold
IC50 ([1]; A2780, 72 h, mean ± SEM): 6.49 ± 1.23 µM
Selective cytotoxicity index (SCI) ([1]; IC50 MCF10A/IC50 A2780): 3.15
potency relative to cisplatin ([2]; ADDP, 72 h): 8 fold
IC50 ([2]; ADDP, 72 h, mean ± SEM): 13.6 ± 1.57 µM
Selective cytotoxicity index (SCI) ([2]; IC50 MCF10A/IC50 ADDP): 1.49
potency relative to cisplatin ([3]; HT29, 72 h): 17 fold
IC50 ([3]; HT29, 72 h, mean ± SEM): 4.48 ± 1.77 µM
Selective cytotoxicity index (SCI) ([3]; IC50 MCF10A/IC50 HT29): 4.57
Selective cytotoxicity index (SCI) ([4]; IC50 MCF10A/IC50 MCF−7): 2.18
potency relative to cisplatin ([4]; MCF−7, 72 h): 3 fold
IC50 ([4]; MCF−7, 72 h, mean ± SEM): 9.39 ± 1.26 µM
Selective cytotoxicity index (SCI) ([5]; IC50 MCF10A/IC50 MDA−MB−231): 6.13
potency relative to cisplatin ([5]; MDA−MB−231, 72 h): 4 fold
IC50 ([5]; MDA−MB−231, 72 h, mean ± SEM): 3.34 ± 1.37 µM
ROS production ([6]; HT29, 24 h): 182.77 RFU
ROS production ([6]; HT29, 48 h): 217.33 RFU
ROS production ([6]; HT29, 72 h): 242.44 RFU
β-actin/GAPDH normalized to control (1) ([7]; representative blot Figure S28A): 0.8943
β-tubulin/GAPDH normalized to control (1) ([7]; representative blot Figure S28B): 0.8137
α-tubulin/GAPDH normalized to control (1) ([7]; representative blot Figure S28C): 0.4054
p-AKT/AKT/GAPDH normalized to control (1) ([7]; representative blot Figure S29A): 1.011
p-ERK/ERK/GAPDH normalized to control (1) ([7]; representative blot Figure S29B): 1.229
p53/GAPDH normalized to control (1) ([7]; representative blot Figure S29C): 4.543
p21/GAPDH normalized to control (1) ([7]; representative blot Figure S29D): 3.293
Bax/GAPDH normalized to control (1) ([7]; representative blot Figure S30A): 3.388
Bcl2/GAPDH normalized to control (1) ([7]; representative blot Figure S30B): 1.194
Cyt C/GAPDH normalized to control (1) ([7]; representative blot Figure S30C): 7.091
Procaspase 8/GAPDH normalized to control (1) ([7]; representative blot Figure S30D): 0.9474
Cleaved BID/GAPDH normalized to control (1) ([7]; representative blot Figure S30E): 2.711
Procaspase 9/GAPDH normalized to control (1) ([7]; representative blot Figure S30F): 0.5927
Cleaved caspase 3/GAPDH normalized to control (1) [7, 9]: 1.017
Procaspase 3/GAPDH normalized to control (1) [7, 9]: 1.141
Cleaved PARP-1/GAPDH normalized to control (1) [7, 10]: 2.239
PARP-1/GAPDH normalized to control (1) [7, 10]: 0.6475
Beclin1/GAPDH normalized to control (1) ([7]; representative blot Figure S31A): 8.006
ATG5/GAPDH normalized to control (1) ([7]; representative blot Figure S31B): 0.3102
ATG16L1/GAPDH normalized to control (1) ([7]; representative blot Figure S31C): 4.093
ATG9A/GAPDH normalized to control (1) ([7]; representative blot Figure S31D): 1.203
ATG4B/GAPDH normalized to control (1) ([7]; representative blot Figure S31E): 0.9049
LC3B/GAPDH normalized to control (1) ([7]; representative blot Figure S31F): 2.232
β-actin/GAPDH normalized to control (1) ([8]; representative blot Figure S24A): 0.835
β-tubulin/GAPDH normalized to control (1) ([8]; representative blot Figure S24B): 0.6552
α-tubulin/GAPDH normalized to control (1) ([8]; representative blot Figure S24C): 0.9279
p-AKT/AKT/GAPDH normalized to control (1) ([8]; representative blot Figure S25A): 1.063
p-ERK/ERK/GAPDH normalized to control (1) ([8]; representative blot Figure S25B): 0.1206
p53/GAPDH normalized to control (1) ([8]; representative blot Figure S25C): 1.176
p21/GAPDH normalized to control (1) ([8]; representative blot Figure S25D): 1.346
Bax/GAPDH normalized to control (1) ([8]; representative blot Figure S26A): 1.398
Bcl2/GAPDH normalized to control (1) ([8]; representative blot Figure S26B): 0.7843
Cytochrome C/GAPDH normalized to control (1) ([8]; representative blot Figure S26C): 2.378
Procaspase 8/GAPDH normalized to control (1) ([8]; representative blot Figure S26D): 0.2888
Cleaved BID/GAPDH normalized to control (1) ([8]; representative blot Figure S26E): 1.33
Procaspase 9/GAPDH normalized to control (1) ([8]; representative blot Figure S26F): 0.2675
Procaspase 3/GAPDH normalized to control (1) ([8]; representative blot Figure S26G): 0.4093
PARP-1/GAPDH normalized to control (1) ([8]; representative blot Figure S26H): 0.5717
Beclin1/GAPDH normalized to control (1) ([8]; representative blot Figure S27A): 1.408
ATG5/GAPDH normalized to control (1) ([8]; representative blot Figure S27B): 1.129
ATG16L1/GAPDH normalized to control (1) ([8]; representative blot Figure S27C): 0.9987
ATG9A/GAPDH normalized to control (1) ([8]; representative blot Figure S27D): 0.774
ATG4B/GAPDH normalized to control (1) ([8]; representative blot Figure S27E): 1.581
LC3B/GAPDH normalized to control (1) ([8]; representative blot Figure S27F): 0.6076
